From patent publication US20200009168A1, “MICROBIOME REGULATORS AND RELATED USES THEREOF” (KALEIDO BIOSCIENCES, INC., priority 2015, published 2020)

Columns and labels:
[1] = system: Bifidobacterium longum DSM 20088 "BLO.83"; experiment: Sugar-supported growth of commensal bacteria, BLO.83; assay type: cell-based; details: 0.5% w/v sugar, 37° C., 18-24 hours, anaerobic; OD600 divided by OD600 with 0.5% w/v dextrose
Procedure: (§1) An in vitro assay was performed to assess the ability of various bacterial strains, including commensals of the gastrointestinal tract, to utilize different sugars as growth substrates. This assay was designed to assess the ability of selected natural monosaccharides, disaccharides and synthetic sugars to promote the growth of microbiota associated with a healthy state. Bacterial strains were handled at all steps in an anaerobic chamber (AS-580, Anaerobe Systems) featuring a palladium catalyst. The chamber was initially made anaerobic by purging with an anaerobic gas mixture of 5% hydrogen, 5% carbon dioxide and 90% nitrogen and subsequently maintained in an anaerobic state using this same anaerobic gas mixture. Anaerobicity of the chamber was confirmed daily using Oxoid anaerobic indicator strips that change color in the presence of oxygen. All culture media, assay plates, other reagents and plastic consumables were pre-reduced in the anaerobic chamber for 24-48 hours prior to contact with bacteria. Sugars were prepared at 5% w/v in water, filter-sterilized and added to Costar 3370 assay plates for a final concentration of 0.5% w/v in the assay, with each microbiome regulator assayed in two non-adjacent wells and dextrose and water supplied as positive and negative controls.
Bacterial isolates were obtained from the American Type Culture Collection (ATCC) and Leibniz Institute DSMZ-German Institute of Microorganisms and Cell Cultures (DSMZ). Cultures of the Bacteroidetes Bacteroides caccae ATCC 43185 “BCA.26”, Bacteroides thetaiotaomicron ATCC 29741 “BTH.8”, Bacteroides cellulosilyticus DSM 14838 “BCE.71”, Parabacteroides distasonis ATCC 8503 “PDI.6” and Prevotella copri DSM 18205 “PCO.72”; the Clostridiales Clostridium scindens ATCC 35704 “CSC.32”, Dorea formicigenerans ATCC 27755 “DFO.36” and Ruminococcus obeum ATCC 29714 “ROB.74”; and the Bifidobacteria Bifidobacterium longum ATCC 15707 “BLO.16” and Bifidobacterium longum DSM 20088 “BLO.83”, were grown anaerobically in Chopped Meat Glucose broth (CMG, Anaerobe Systems), a pre-reduced enriched medium including lean ground beef, enzymatic digest of casein, yeast extract, potassium phosphate, dextrose, cysteine, hemin and Vitamin K1, for 18-48 hours at 37° C. Inocula were prepared by determining the optical density of each culture at […] (OD600) in a Costar 3370 polystyrene 96-well flat-bottom assay plate using a Biotek Synergy 2 plate reader with Gen5 2.0 All-In-One Microplate Reader Software according to manufacturer's protocol, and diluting the cells to OD600 0.01 final in defined and semi-defined media that were prepared without sugars. […]

[2] = system: Parabacteroides distasonis ATCC 8503 "PDI.6"; experiment: Sugar-supported growth of commensal bacteria, PDI.6; assay type: cell-based; details: 0.5% w/v sugar, 37° C., 18-24 hours, anaerobic; OD600 divided by OD600 with 0.5% w/v dextrose
Procedure: as §1
(§2) Bacterial isolates were obtained from the American Type Culture Collection (ATCC) and Leibniz Institute DSMZ-German Institute of Microorganisms and Cell Cultures (DSMZ). Cultures of the Bacteroidetes Bacteroides caccae ATCC 43185 “BCA.26”, Bacteroides thetaiotaomicron ATCC 29741 “BTH.8”, Bacteroides cellulosilyticus DSM 14838 “BCE.71”, Parabacteroides distasonis ATCC 8503 “PDI.6” and Prevotella copri DSM 18205 “PCO.72”; the Clostridiales Clostridium scindens ATCC 35704 “CSC.32”, Dorea formicigenerans ATCC 27755 “DFO.36” and Ruminococcus obeum ATCC 29714 “ROB.74”; and the Bifidobacteria Bifidobacterium longum ATCC 15707 “BLO.16” and Bifidobacterium longum DSM 20088 “BLO.83”, were grown anaerobically in Chopped Meat Glucose broth (CMG, Anaerobe Systems), a pre-reduced enriched medium including lean ground beef, enzymatic digest of casein, yeast extract, potassium phosphate, dextrose, cysteine, hemin and Vitamin K1, for 18-48 hours at 37° C. Inocula were prepared by determining the optical density of each culture at […] (OD600) in a Costar 3370 polystyrene 96-well flat-bottom assay plate using a Biotek Synergy 2 plate reader with Gen5 2.0 All-In-One Microplate Reader Software according to manufacturer's protocol, and diluting the cells to OD600 0.01 final in defined and semi-defined media that were prepared without sugars. D. formicigenerans, P. distasonis and B. longum isolates were tested in 900 mg/L sodium chloride, 26 mg/L calcium chloride dihydrate, 20 mg/L magnesium chloride hexahydrate, 10 mg/L manganese chloride tetrahydrate, 40 mg/L ammonium sulfate, 4 mg/L iron sulfate heptahydrate, 1 mg/L cobalt chloride hexahydrate, 300 mg/L potassium phosphate dibasic, 1.5 g/L sodium phosphate dibasic, 5 g/L sodium bicarbonate, 0.125 mg/L biotin, 1 mg/L pyridoxine, […], 75 mg/L histidine, 75 mg/L glycine, 75 mg/L tryptophan, 150 mg/L arginine, 150 mg/L methionine, 150 mg/L threonine, 225 mg/L valine, 225 mg/L isoleucine, 300 mg/L leucine, 400 mg/L cysteine, and 450 mg/L proline (Theriot C M et al. Nat Commun. 2014; 5:3114), supplemented with 0-3.5% (v/v) CMG. B. thetaiotaomicron, B. caccae and B. cellulosyliticus were tested in 100 mM potassium phosphate buffer (pH 7.2), 15 mM sodium chloride, 8.5 mM ammonium sulfate, 4 mM L-cysteine, 1.9 μM hematin, 200 μM L-histidine, 100 μM magnesium chloride, 1.4 μM iron sulfate heptahydrate, 50 μM calcium chloride, 1 μg/mL vitamin K3 and 5 ng/mL vitamin B12 (Martens E C et al. Cell Host & Microbe 2008; 4, 447-457). […]

[3] = system: panel of 10 commensals; experiment: Sugar-supported growth, whole panel of 10 commensals; assay type: cell-based; details: 0.5% w/v sugar, summary in words
Procedure: as §1, §2

[4] = system: Bacteroides thetaiotaomicron ATCC 29741 "BTH.8"; experiment: Sugar-supported growth of commensal bacteria, BTH.8; assay type: cell-based; details: 0.5% w/v sugar, 37° C., 18-24 hours, anaerobic; OD600 divided by OD600 with 0.5% w/v dextrose
Procedure: as §1, §2

[5] = system: Ruminococcus obeum ATCC 29714 "ROB.74"; experiment: Sugar-supported growth of commensal bacteria, ROB.74; assay type: cell-based; details: 0.5% w/v sugar, 37° C., 18-24 hours, anaerobic; OD600 divided by OD600 with 0.5% w/v dextrose
Procedure: as §1, §2

[6] = system: Prevotella copri DSM 18205 "PCO.72"; experiment: Sugar-supported growth of commensal bacteria, PCO.72; assay type: cell-based; details: 0.5% w/v sugar, 37° C., 18-24 hours, anaerobic; OD600 divided by OD600 with 0.5% w/v dextrose
Procedure: as §1, §2

[7] = system: Dorea formicigenerans ATCC 27755 "DFO.36"; experiment: Sugar-supported growth of commensal bacteria, DFO.36; assay type: cell-based; details: 0.5% w/v sugar, 37° C., 18-24 hours, anaerobic; OD600 divided by OD600 with 0.5% w/v dextrose
Procedure: as §1, §2

[8] = system: Bacteroides caccae ATCC 43185 "BCA.26"; experiment: Sugar-supported growth of commensal bacteria, BCA.26; assay type: cell-based; details: 0.5% w/v sugar, 37° C., 18-24 hours, anaerobic; OD600 divided by OD600 with 0.5% w/v dextrose
Procedure: as §1, §2

[9] = system: Bacteroides cellulosilyticus DSM 14838 "BCE.71"; experiment: Sugar-supported growth of commensal bacteria, BCE.71; assay type: cell-based; details: 0.5% w/v sugar, 37° C., 18-24 hours, anaerobic; OD600 divided by OD600 with 0.5% w/v dextrose
Procedure: as §1, §2

[10] = system: Bifidobacterium longum ATCC 15707 "BLO.16"; experiment: Sugar-supported growth of commensal bacteria, BLO.16; assay type: cell-based; details: 0.5% w/v sugar, 37° C., 18-24 hours, anaerobic; OD600 divided by OD600 with 0.5% w/v dextrose
Procedure: as §1, §2

[11] = system: Clostridium scindens ATCC 35704 "CSC.32"; experiment: Sugar-supported growth of commensal bacteria, CSC.32; assay type: cell-based; details: 0.5% w/v sugar, 37° C., 18-24 hours, anaerobic; OD600 divided by OD600 with 0.5% w/v dextrose
Procedure: as §1, §2

[12] = studies by McCance et al (J Biol Chem (1930) 24:795-804); cited from earlier work
[13] = system: colonic regulatory T cells; details: in mice or in vitro; cited from earlier work

Row | SMILES | Average Normalized Growth (NGV), BLO.83 [1] | Average Normalized Growth (NGV), PDI.6 [2] | taxa or strains of the commensal panel whose growth was supported [3] | Average Normalized Growth (NGV), BTH.8 [4] | Average Normalized Growth (NGV), ROB.74 [5] | Average Normalized Growth (NGV), PCO.72 [6] | Average Normalized Growth (NGV), DFO.36 [7] | Average Normalized Growth (NGV), BCA.26 [8] | Average Normalized Growth (NGV), BCE.71 [9] | Average Normalized Growth (NGV), BLO.16 [10] | Average Normalized Growth (NGV), CSC.32 [11] | absorption by the gastrointestinal tract [12] | expression of Foxp3, a T cell regulatory factor [13] | expression of IL-10, an anti-inflammatory cytokine [13]
1 | O=C(CO)[C@@H](O)[C@H](O)[C@H](O)CO [D-fructose] | +++ (>1) | +++ (>1) | supported some commensals from the taxa Bacteroidetes, Firmicutes, including Lachnospiraceae, and Bifidobacteria | ++ (0.6-1) | ++ (0.6-1) | ++ (0.6-1) | +++ (>1) | ++ (0.6-1) | +++ (>1) | +++ (>1) | +++ (>1) |  |  | 
2 | O=C[C@H](O)[C@@H](O)[C@@H](O)[C@H](O)CO [D-galactose] | +++ (>1) | +++ (>1) | supported some commensals from the taxa Bacteroidetes, Firmicutes, including Lachnospiraceae, and Bifidobacteria | +++ (>1) | + (0.2-0.6) | +++ (>1) | + (0.2-0.6) | ++ (0.6-1) | +++ (>1) | − (<0.2) | ++ (0.6-1) | readily absorbed |  | 
3 | C[C@H](O)[C@H](O)[C@@H](O)[C@@H](O)C=O [L-rhamnose] |  | − (<0.2) |  | + (0.2-0.6) |  | + (0.2-0.6) | − (<0.2) | − (<0.2) |  | − (<0.2) | − (<0.2) | are not |  | 
4 | O=C[C@@H](O)[C@H](O)[C@H](O)CO [arabinose] |  |  |  |  |  |  |  |  |  |  |  | are not |  | 
5 | OC[C@H]1O[C@@H](O[C@H]2[C@H](O)[C@@H](O)C(O)O[C@@H]2CO)[C@H](O)[C@@H](O)[C@H]1O (stereo partly drawn) [lactose] | +++ (>1) | +++ (>1) | supported some commensals from the taxa Bacteroidetes, Firmicutes, including Lachnospiraceae, and Bifidobacteria | +++ (>1) | ++ (0.6-1) | +++ (>1) | +++ (>1) | +++ (>1) | +++ (>1) | ++ (0.6-1) | +++ (>1) |  |  | 
6 | CCC(=O)O [propionate, propionic acid] |  |  |  |  |  |  |  |  |  |  |  |  | increased | increased
